Numbered stars: 1 amine (or outer) side, 2 acyl side, 3 side chain; on linkers, the order of the positions; unused ones are H or OH. Peptide text beside a SMILES is read from it. * marks the point of attachment. C20 diacid = O=C(O)CCCCCCCCCCCCCCCCCCC(=O)*; C18 diacid = O=C(O)CCCCCCCCCCCCCCCCC(=O)*; γGlu = O=C(O)[C@H](CCC(=O)[*:2])N[*:1]
How the values were obtained:
[1] = target: T1, Amylin receptor AMY3; CALCR/RAMP3 (Homo sapiens, UniProt O60896+P30988); assay: Agonist activity at human amylin receptor expressed in BHK570 cells co-expressing RAMP3 assessed as increase in intracellular cAMP concentration incubated for 3 hrs in absence of albumin by CRE luciferase reporter gene assay; type: functional, cell-based
T1 sequence (P30988 whole entry): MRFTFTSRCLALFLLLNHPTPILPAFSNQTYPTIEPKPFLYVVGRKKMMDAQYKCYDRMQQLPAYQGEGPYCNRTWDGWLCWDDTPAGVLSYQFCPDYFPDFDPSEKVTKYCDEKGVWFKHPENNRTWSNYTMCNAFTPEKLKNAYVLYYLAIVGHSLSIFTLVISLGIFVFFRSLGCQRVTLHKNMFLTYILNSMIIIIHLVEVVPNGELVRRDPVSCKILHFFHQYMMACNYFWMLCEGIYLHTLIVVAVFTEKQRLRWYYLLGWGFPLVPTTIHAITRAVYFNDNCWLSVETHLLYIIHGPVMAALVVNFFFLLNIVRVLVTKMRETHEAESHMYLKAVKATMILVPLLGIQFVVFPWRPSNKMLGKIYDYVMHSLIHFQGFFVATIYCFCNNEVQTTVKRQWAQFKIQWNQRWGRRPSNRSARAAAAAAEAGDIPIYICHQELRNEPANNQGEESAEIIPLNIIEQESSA
T1 sequence (O60896 whole entry): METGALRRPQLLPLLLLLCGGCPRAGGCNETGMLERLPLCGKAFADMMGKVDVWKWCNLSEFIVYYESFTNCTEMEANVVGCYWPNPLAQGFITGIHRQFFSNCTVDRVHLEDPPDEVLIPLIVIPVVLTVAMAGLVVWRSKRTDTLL

[2] = Solubility in 100 mM glycylglycine buffer at pH 3.0 incubated for 18 hrs by UPLC analysis; type: physicochemical
[3] = Solubility in 100 mM bistrispropane buffer at pH 8.0 incubated for 18 hrs by UPLC analysis; type: physicochemical
[4] = Solubility in 100 mM glycylglycine buffer at pH 4.0 incubated for 18 hrs by UPLC analysis; type: physicochemical
[5] = Solubility in 100 mM bistrispropane buffer at pH 6.5 incubated for 18 hrs by UPLC analysis; type: physicochemical
[6] = target: T1, Amylin receptor AMY3; CALCR/RAMP3; assay: Displacement of [125I]-labeled rat amylin from human amylin receptor expressed in BHK tkts13 whole cells co-expressing RAMP3 incubated for 60 mins by scintillation proximity assay; type: cell-based
Calcitonin receptor [7] = target: T2, Calcitonin receptor (Homo sapiens, UniProt P30988); assay: Displacement of [125I]-labeled human calcitonin from human calcitonin receptor expressed in BHK tkts13 whole cells incubated for 60 mins by scintillation proximity assay; type: cell-based
T2 sequence (P30988 whole entry): T1 sequence (P30988 whole entry)

[8] = Solubility in 100 mM bistrispropane buffer at pH 6.0 incubated for 18 hrs by UPLC analysis; type: physicochemical
[9] = Solubility in 100 mM bistrispropane buffer at pH 7.0 incubated for 18 hrs by UPLC analysis; type: physicochemical
Calcitonin receptor [10] = target: T2, Calcitonin receptor; assay: Agonist activity at human calcitonin receptor expressed in BHK570 cells assessed as increase in intracellular cAMP concentration incubated for 3 hrs in absence of albumin by CRE luciferase reporter gene assay; type: functional, cell-based
[11] = Solubility in 100 mM glycylglycine buffer at pH 5.0 incubated for 18 hrs by UPLC analysis; type: physicochemical
[12] = Solubility in 100 mM bistrispropane buffer at pH 7.5 incubated for 18 hrs by UPLC analysis; type: physicochemical
Rattus norvegicus [13] = assay: Reduction in food intake in Sprague-Dawley rat at 3 nmol/kg measured 24 to 48 hrs post dose relative to control; type: functional; set-up: scale not given: the % may be the effect or the level left
Rattus norvegicus [14] = assay: Reduction in food intake in Sprague-Dawley rat at 3 nmol/kg measured 0 to 24 hrs post dose relative to control; type: functional; set-up: scale not given: the % may be the effect or the level left
[15] = target: T1, Amylin receptor AMY3; CALCR/RAMP3; assay: Agonist activity at human amylin receptor expressed in BHK570 cells co-expressing RAMP3 assessed as increase in intracellular cAMP concentration incubated for 3 hrs in presence of 10% FBS by CRE luciferase reporter gene assay; type: functional, cell-based
Calcitonin receptor [16] = target: T2, Calcitonin receptor; assay: Agonist activity at human calcitonin receptor expressed in BHK570 cells assessed as increase in intracellular cAMP concentration incubated for 3 hrs in presence of 10% FBS by CRE luciferase reporter gene assay; type: functional, cell-based

## CC(C)C[C@H](NC(=O)[C@H](C)NC(=O)[C@H](C)NC(=O)[C@@H](NC(=O)[C@H](CO)NC(=O)[C@H](CC(C)C)NC(=O)[C@H](CCC(=O)O)NC(=O)[C@H](CO)NC(=O)[C@H](C)NC(=O)[C@H](CCC(=O)O)NC(=O)CCCCCCCCCCCCCCCCC(=O)O)[C@@H](C)O)C(=O)NCC(=O)N[C@@H](CCCNC(=N)N)C(=O)N[C@@H](CC(C)C)C(=O)N[C@@H](CO)C(=O)N[C@@H](C)C(=O)N[C@@H](CCC(=O)O)C(=O)N[C@@H](CC(C)C)C(=O)N[C@@H](Cc1cnc[nH]1)C(=O)N[C@@H](CCC(=O)O)C(=O)N[C@@H](CC(C)C)C(=O)N[C@@H](C)C(=O)N[C@H](C(=O)N[C@@H](CC(C)C)C(=O)N1CCC[C@H]1C(=O)N[C@@H](CCCNC(=N)N)C(=O)N[C@H](C(=O)N[C@@H](CCC(=O)O)C(=O)N[C@H](C(=O)NCC(=O)N1CCC[C@H]1C(=O)N[C@@H](CCC(=O)O)C(=O)N[C@@H](Cc1cnc[nH]1)C(=O)N1CCC[C@H]1C(N)=O)[C@@H](C)O)[C@@H](C)O)[C@@H](C)O ({C18 diacid}-EASELSTAALGRLSAELHELATLPRTETGPEHP-NH2)
[1]
  EC50: 0.02 nM
[2]
  solubility at 18 h: ≥ 200 µM
[3]
  solubility at 18 h: ≥ 200 µM
[4]
  solubility at 18 h: ≥ 200 µM
[5]
  solubility at 18 h: ≥ 200 µM
[6]
  IC50: 1.27 nM
Calcitonin receptor [7]
  IC50: 1.17 nM
[8]
  solubility at 18 h: ≥ 200 µM
[9]
  solubility at 18 h: ≥ 200 µM
Calcitonin receptor [10]
  EC50: 0.017 nM
[11]
  solubility at 18 h: ≥ 200 µM
[12]
  solubility at 18 h: ≥ 200 µM

## CC(C)C[C@H](NC(=O)[C@H](CCC(=O)O)NC(=O)[C@H](C)NC(=O)[C@H](CO)NC(=O)[C@H](CC(C)C)NC(=O)[C@H](CCCNC(=N)N)NC(=O)CNC(=O)[C@H](CC(C)C)NC(=O)[C@@H](NC(=O)[C@H](C)NC(=O)[C@@H](NC(=O)[C@H](CO)NC(=O)[C@H](CC(C)C)NC(=O)[C@H](CCC(=O)O)NC(=O)[C@H](CO)NC(=O)[C@H](C)NC(=O)[C@H](CCC(=O)O)NC(=O)CCCCCCCCCCCCCCCCC(=O)O)[C@@H](C)O)C(C)C)C(=O)N[C@@H](C)C(=O)N[C@@H](CCC(=O)O)C(=O)N[C@@H](CC(C)C)C(=O)N[C@@H](C)C(=O)N[C@H](C(=O)N[C@@H](CC(C)C)C(=O)N1CCC[C@H]1C(=O)N[C@@H](CCCNC(=N)N)C(=O)N[C@H](C(=O)N[C@@H](CCC(=O)O)C(=O)N[C@H](C(=O)NCC(=O)N1CCC[C@H]1C(=O)N[C@@H](CCC(=O)O)C(=O)N[C@@H](CO)C(=O)N1CCC[C@H]1C(N)=O)[C@@H](C)O)[C@@H](C)O)[C@@H](C)O ({C18 diacid}-EASELSTAVLGRLSAELAELATLPRTETGPESP-NH2)
[1]
  EC50: 0.008 nM
[2]
  solubility at 18 h: ≥ 200 µM
[3]
  solubility at 18 h: ≥ 200 µM
Rattus norvegicus [13]
  Activity: 39%
[5]
  solubility at 18 h: ≥ 200 µM
Rattus norvegicus [14]
  Activity: 73%
Calcitonin receptor [7]
  IC50: 0.752 nM
[8]
  solubility at 18 h: ≥ 200 µM
[9]
  solubility at 18 h: ≥ 200 µM
Calcitonin receptor [10]
  EC50: 0.007 nM
[11]
  solubility at 18 h: ≥ 200 µM
[12]
  solubility at 18 h: ≥ 200 µM

## CC(C)C[C@H](NC(=O)[C@H](CCCNC(=N)N)NC(=O)CNC(=O)[C@H](CC(C)C)NC(=O)[C@@H](NC(=O)[C@H](C)NC(=O)[C@@H](NC(=O)[C@H](CO)NC(=O)[C@H](CC(C)C)NC(=O)[C@H](CCC(=O)O)NC(=O)[C@H](CO)NC(=O)[C@H](C)NC(=O)CC[C@H](NC(=O)CCCCCCCCCCCCCCCCCCC(=O)O)C(=O)O)[C@@H](C)O)[C@@H](C)O)C(=O)N[C@@H](CO)C(=O)N[C@@H](C)C(=O)N[C@@H](CCC(=O)O)C(=O)N[C@@H](CC(C)C)C(=O)N[C@@H](Cc1cnc[nH]1)C(=O)N[C@@H](CCC(=O)O)C(=O)N[C@@H](CC(C)C)C(=O)N[C@@H](CO)C(=O)N[C@H](C(=O)N[C@@H](Cc1ccc(O)cc1)C(=O)N1CCC[C@H]1C(=O)N[C@@H](CCCNC(=N)N)C(=O)N[C@H](C(=O)N[C@@H](CCC(=O)O)C(=O)N[C@H](C(=O)NCC(=O)N[C@@H](CO)C(=O)NCC(=O)N[C@@H](CO)C(=O)N1CCC[C@H]1C(N)=O)[C@@H](C)O)[C@@H](C)O)[C@@H](C)O ({C20 diacid-γGlu}-ASELSTATLGRLSAELHELSTYPRTETGSGSP-NH2)
[15]
  EC50: 0.15 nM
[1]
  EC50: 0.022 nM
[2]
  solubility at 18 h: ≥ 200 µM
[3]
  solubility at 18 h: ≥ 200 µM
[4]
  solubility at 18 h: ≥ 200 µM
[5]
  solubility at 18 h: ≥ 200 µM
[6]
  IC50: 2.61 nM
Calcitonin receptor [16]
  EC50: 0.105 nM
Calcitonin receptor [7]
  IC50: 2.94 nM
[8]
  solubility at 18 h: ≥ 200 µM
[9]
  solubility at 18 h: ≥ 200 µM
[12]
  solubility at 18 h: ≥ 200 µM

## CC(C)C[C@H](NC(=O)[C@H](C)NC(=O)[C@H](C)NC(=O)[C@@H](NC(=O)[C@H](CO)NC(=O)[C@H](CC(C)C)NC(=O)[C@H](CCC(N)=O)NC(=O)[C@H](CO)NC(=O)[C@H](C)NC(=O)CC[C@H](NC(=O)CCCCCCCCCCCCCCCCC(=O)O)C(=O)O)[C@@H](C)O)C(=O)NCC(=O)N[C@@H](CCCNC(=N)N)C(=O)N[C@@H](CC(C)C)C(=O)N[C@@H](CO)C(=O)N[C@@H](C)C(=O)N[C@@H](CCC(=O)O)C(=O)N[C@@H](CC(C)C)C(=O)N[C@@H](Cc1cnc[nH]1)C(=O)N[C@@H](CCC(=O)O)C(=O)N[C@@H](CC(C)C)C(=O)N[C@@H](C)C(=O)N[C@H](C(=O)N[C@@H](CC(C)C)C(=O)N1CCC[C@H]1C(=O)N[C@@H](CCCNC(=N)N)C(=O)N[C@H](C(=O)N[C@@H](CCC(=O)O)C(=O)N[C@H](C(=O)NCC(=O)N[C@@H](CO)C(=O)NCC(=O)N[C@@H](CO)C(=O)N1CCC[C@H]1C(N)=O)[C@@H](C)O)[C@@H](C)O)[C@@H](C)O ({C18 diacid-γGlu}-ASQLSTAALGRLSAELHELATLPRTETGSGSP-NH2)
[1]
  EC50: 0.009 nM
[2]
  solubility at 18 h: ≥ 200 µM
[3]
  solubility at 18 h: ≥ 200 µM
[4]
  solubility at 18 h: ≥ 200 µM
[5]
  solubility at 18 h: ≥ 200 µM
Calcitonin receptor [7]
  IC50: 0.605 nM
[8]
  solubility at 18 h: ≥ 200 µM
[9]
  solubility at 18 h: ≥ 200 µM
Calcitonin receptor [10]
  EC50: 0.011 nM
[11]
  solubility at 18 h: ≥ 200 µM
[12]
  solubility at 18 h: ≥ 200 µM

## CC(C)C[C@H](NC(=O)[C@H](CCCNC(=N)N)NC(=O)CNC(=O)[C@H](CC(C)C)NC(=O)[C@@H](NC(=O)[C@H](C)NC(=O)[C@@H](NC(=O)[C@H](CO)NC(=O)[C@H](CC(C)C)NC(=O)[C@H](CCC(N)=O)NC(=O)[C@H](CO)NC(=O)[C@H](C)NC(=O)[C@H](CCC(=O)O)NC(=O)CC[C@H](NC(=O)CCCCCCCCCCCCCCCCCCC(=O)O)C(=O)O)[C@@H](C)O)C(C)C)C(=O)N[C@@H](CO)C(=O)N[C@@H](CCC(N)=O)C(=O)N[C@@H](CCC(=O)O)C(=O)N[C@@H](CC(C)C)C(=O)N[C@@H](Cc1cnc[nH]1)C(=O)N[C@@H](CCC(=O)O)C(=O)N[C@@H](CC(C)C)C(=O)N[C@@H](CCC(N)=O)C(=O)N[C@H](C(=O)N[C@@H](Cc1ccc(O)cc1)C(=O)N1CCC[C@H]1C(=O)N[C@@H](CCCNC(=N)N)C(=O)N[C@H](C(=O)NCC(=O)N[C@H](C(=O)NCC(=O)N[C@@H](CO)C(=O)NCC(=O)N[C@H](C(=O)N[C@@H](Cc1ccc(O)cc1)C(N)=O)[C@@H](C)O)[C@@H](C)O)[C@@H](C)O)[C@@H](C)O ({C20 diacid-γGlu}-EASQLSTAVLGRLSQELHELQTYPRTGTGSGTY-NH2)
[1]
  EC50: 0.066 nM
[6]
  IC50: 0.338 nM
Calcitonin receptor [7]
  IC50: 0.796 nM
Calcitonin receptor [10]
  EC50: 0.056 nM

Reference: ChEMBL document CHEMBL4420076, “Amylin and calcitonin receptor agonist” (2017)
